Data published in patent US20160355475A1, “NOVEL INDOLE DERIVATIVE COMPOUND AND PHARMACEUTICAL COMPOSITION COMPRISING THE SAME” (CHONG KUN DANG PHARMACEUTICAL CORP., priority 2014, published 2016).

What was measured:
[1] = system: tubulin acetylation (HDAC6); test: Western blot of tubulin acetylation in RPMI8226 cells; format: cell-based; details: 24 hours, FIG. 1
Method: (§1) Specifically, RPMI8226 cells were seeded into a six-well plate at a density of 1.0×10^6 cells/well, and then treated with varying concentrations of compound 528. After 24 hours, protein was extracted from the cells using RIPA buffer and quantified by the Bradford method. 25 μg of the protein was added to sample buffer and electrophoresed on 4-12% gradient gel, and the gel was transferred to a nitrocellulose membrane for 50 minutes. The membrane was blocked in 5% skim milk solution for 1 hour. Anti-acetyl H3 antibody (1:2,000), anti-acetyl H4 antibody (1:5,000), anti-acetyl tubulin antibody (1:5,000) and anti-β-actin antibody (1:10,000) were added to 5% skim milk, and the membrane was immersed in the skim milk and allowed to react at 4° C. for 16 hours, after which it was washed three times with 1×TBS-T for 10 minutes each washing. IgG-HRP antibody (1:5,000) was added to the 5% skim milk, and the membrane was immersed in the skim milk and allowed to react at room temperature for 40 minutes, after which it was washed three times with 1×TBS-T for 10 minutes each washing. Detection was performed by LAS 3000 using ECL solution.

HDAC6 human recombinant = target: T1, HDAC6 human recombinant (Homo sapiens, UniProt Q9UBN7); test: HDAC6 enzyme activity inhibition (fluorimetric, in vitro); format: biochemical; details: 37° C., 60 minutes; tested at 0.1, 1, 10, 100 and 1000 nM
T1 construct: purchased Calbiochem 382180
T1 sequence (Q9UBN7 1-1215): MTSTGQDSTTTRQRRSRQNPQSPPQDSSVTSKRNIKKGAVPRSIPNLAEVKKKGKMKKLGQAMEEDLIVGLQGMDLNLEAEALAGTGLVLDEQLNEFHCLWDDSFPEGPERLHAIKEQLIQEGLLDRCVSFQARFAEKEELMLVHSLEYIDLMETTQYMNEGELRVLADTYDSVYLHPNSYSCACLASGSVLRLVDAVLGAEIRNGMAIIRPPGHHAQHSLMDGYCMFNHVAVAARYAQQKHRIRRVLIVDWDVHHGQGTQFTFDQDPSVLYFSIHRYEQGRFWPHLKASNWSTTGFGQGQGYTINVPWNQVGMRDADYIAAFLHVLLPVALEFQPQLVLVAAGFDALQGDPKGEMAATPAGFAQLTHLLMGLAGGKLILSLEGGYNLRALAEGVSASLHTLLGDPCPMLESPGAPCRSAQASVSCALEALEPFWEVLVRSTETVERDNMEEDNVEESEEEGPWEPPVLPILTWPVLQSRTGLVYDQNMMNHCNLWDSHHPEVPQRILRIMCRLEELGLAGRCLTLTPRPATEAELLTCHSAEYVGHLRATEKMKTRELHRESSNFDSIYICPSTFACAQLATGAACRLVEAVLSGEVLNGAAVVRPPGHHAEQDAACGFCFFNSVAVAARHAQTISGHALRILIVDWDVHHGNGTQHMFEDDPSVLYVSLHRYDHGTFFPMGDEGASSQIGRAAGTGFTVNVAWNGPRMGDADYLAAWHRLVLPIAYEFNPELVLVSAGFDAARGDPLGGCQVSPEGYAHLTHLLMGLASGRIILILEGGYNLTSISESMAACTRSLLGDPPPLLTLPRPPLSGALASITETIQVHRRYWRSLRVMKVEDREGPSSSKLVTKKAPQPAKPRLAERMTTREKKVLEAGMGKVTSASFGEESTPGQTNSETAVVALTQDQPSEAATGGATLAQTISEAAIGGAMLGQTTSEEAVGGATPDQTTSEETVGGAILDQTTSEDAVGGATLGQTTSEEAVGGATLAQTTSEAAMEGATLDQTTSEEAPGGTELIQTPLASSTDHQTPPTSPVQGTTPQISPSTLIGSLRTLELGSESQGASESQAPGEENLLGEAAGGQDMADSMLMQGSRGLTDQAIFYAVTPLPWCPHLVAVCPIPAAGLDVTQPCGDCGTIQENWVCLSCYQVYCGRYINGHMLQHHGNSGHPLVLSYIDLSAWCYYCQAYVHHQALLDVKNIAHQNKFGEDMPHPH
In short: (§2)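 Fluorimetric deacetylase assay using an HDAC1 kit and human recombinant HDAC6. Compounds tested at 100–10000 nM (HDAC1) or 0.1–1000 nM (HDAC6), reacted 60 min at 37 °C, then developer 30 min at 37 °C before fluorescence read. Values in μM.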

[2] = Distribution in brain tissue and plasma of ICR mice after oral administration; format: in vivo; details: mouse, 50 mg/kg PO, 0.5, 1 and 2 hours, LC-MS/MS, FIG. 2, read-out: concentration in the plasma tissue relative to that in the brain tissue
Method: The distribution of the compound of the present invention in the brain tissue of ICR mice was examined. Specifically, the compound of the present invention was administered orally (PO) to ICR mice at a dose of 50 mg/kg. At 0.5, 1 and 2 hours after administration, blood was collected from the orbital venous plexus of the mice. After the mice were euthanized, the brain tissue (including cerebral, cerebellar and medullar tissues) was extracted.
The blood was centrifuged at 13000 rpm for 4 minutes, and then 30 μL of plasma was collected, and an organic solvent (90 wt % acetonitrile in methanol) was added thereto to remove protein. Then, the solution was centrifuged, and the supernatant was collected.
In addition, saline was added to the isolated brain tissue, and homogenized using a homogenizer. From the homogenized dilution, 100 μL of a sample was taken, and an organic solvent (90 wt % acetonitrile in methanol) was added thereto to remove protein, after which the solution was centrifuged, and the supernatant was collected. The concentrations of the compound of the present invention in the pretreated plasma and brain tissue solutions were analyzed by LC-MS/MS.

HDAC1 = target: T2, HDAC1 (Homo sapiens, UniProt Q13547); test: HDAC1 enzyme activity inhibition (HDAC1 fluorimetric drug discovery assay kit); format: biochemical; details: 37° C., 60 minutes; tested at 100, 1000 and 10000 nM
T2 construct: purchased Enzolifesciences BML-AK511
In short: as §2

[3] = system: histone acetylation (HDAC1); test: Western blot of histone H3 and H4 acetylation in RPMI8226 cells; format: cell-based; details: 24 hours, FIG. 1
Method: as §1

T2 sequence (Q13547 whole entry): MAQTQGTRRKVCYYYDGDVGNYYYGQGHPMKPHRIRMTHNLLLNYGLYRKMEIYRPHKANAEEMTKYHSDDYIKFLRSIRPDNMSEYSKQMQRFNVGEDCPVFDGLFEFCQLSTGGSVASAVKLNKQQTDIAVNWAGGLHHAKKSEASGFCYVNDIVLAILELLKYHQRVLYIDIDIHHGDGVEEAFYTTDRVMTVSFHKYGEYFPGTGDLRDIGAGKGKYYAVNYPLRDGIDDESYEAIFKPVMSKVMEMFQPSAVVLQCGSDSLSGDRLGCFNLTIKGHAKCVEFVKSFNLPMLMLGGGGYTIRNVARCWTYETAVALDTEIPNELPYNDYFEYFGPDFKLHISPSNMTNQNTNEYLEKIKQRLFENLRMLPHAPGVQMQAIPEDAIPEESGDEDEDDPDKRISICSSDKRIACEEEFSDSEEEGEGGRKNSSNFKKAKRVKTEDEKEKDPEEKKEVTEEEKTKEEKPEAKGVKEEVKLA

IC50 (HDAC6 human recombinant)	Kp [2]	IC50 (HDAC1)	Structure (SMILES)	compound concentration at which tubulin acetylation (HDAC6) appeared [1]	compound concentration at which histone acetylation (HDAC1) appeared [3]
74 nM	≥ 0.5	8000 nM	Cc1c(Cc2ccc(C(=O)NO)cc2)c2ccccc2n1CC1CCN(CC(C)(C)F)CC1 [Compound 528, 4-((1-((1-(2-fluoro-2-methylpropyl)piperidin-4-yl)methyl)-2-methyl-1H-indol-3-yl)methyl)-N-hydroxybenzamide]	100 nM	at least 3 uM
8 nM		2220 nM	Cc1c(Cc2ccc(C(=O)NO)cc2)c2ccccc2n1CCN1CCN(C)CC1 [Compound 154, N-hydroxy-4-((2-methyl-1-(2-(4-methylpiperazin-1-yl)ethyl)-1H-indol-3-yl)methyl)benzamide]		
107 nM		5010 nM	CC(C)(F)CN1CCC(Cn2c(-c3ccncc3)c(Cc3ccc(C(=O)NO)cc3)c3ccccc32)CC1 [Compound 624, 4-((1-((1-(2-Fluoro-2-methylpropyl)piperidin-4-yl)methyl)-2-(pyridin-4-yl)-1H-indol-3-yl)methyl)-N-hydroxybenzamide]		
39 nM		8100 nM	Cc1c(Cc2ccc(C(=O)NO)cc2)c2ccccc2n1CCN1CCC(F)CC1 [Compound 553, 4-((1-(2-(4-Fluoropiperidin-1-yl)ethyl)-2-methyl-1H-indol-3-yl)methyl)-N-hydroxybenzamide]		
5 nM		3630 nM	Cc1c(Cc2ccc(C(=O)NO)cc2)c2ccccc2n1CC1CCN(CC2(F)COC2)CC1 [Compound 609, 4-((1-((1-((3-Fluorooxetan-3-yl)methyl)piperidin-4-yl)methyl)-2-methyl-1H-indol-3-yl)methyl)-N-hydroxybenzamide]		
63 nM		4640 nM	Cc1c(Cc2ccc(C(=O)NO)cc2)c2cc(F)ccc2n1CCN1CC[C@H](F)C1 [Compound 589, (S)-4-((5-fluoro-1-(2-(3-fluoropyrrolidin-1-yl)ethyl)-2-methyl-1H-indol-3-yl)methyl)-N-hydroxybenzamide]		
37 nM		802 nM	Cc1c(Cc2ccc(C(=O)NO)cc2)c2ccccc2n1CC1CCN(CC2(F)CCN(C(C)C)CC2)CC1 [Compound 681, 4-((1-((1-((4-Fluoro-1-isopropylpiperidin-4-yl)methyl)piperidin-4-yl)methyl)-2-methyl-1H-indol-3-yl)methyl)-N-hydroxybenzamide]		
28 nM		4580 nM	Cc1c(Cc2ccc(C(=O)NO)cc2)c2ccccc2n1CC1CCN(CC2(C)COC2)CC1 [Compound 643, N-hydroxy-4-((2-methyl-1-((1-((3-methyloxetan-3-yl)methyl)piperidin-4-yl)methyl)-1H-indol-3-yl)methyl)benzamide]		
69 nM		6740 nM	Cc1c(Cc2ccc(C(=O)NO)cc2)c2ccccc2n1CC1CCN(CC2(F)CCN(CC(C)(C)O)CC2)CC1 [Compound 613, 4-((1-((1-((4-fluoro-1-(2-hydroxy-2-methylpropyl)piperidin-4-yl)methyl)piperidin-4-yl)methyl)-2-methyl-1H-indol-3-yl)methyl)-N-hydroxybenzamide]		
13 nM		832 nM	Cc1c(Cc2ccc(C(=O)NO)cc2)c2ccccc2n1CC1CCN(CC2(F)CCN(C)CC2)CC1 [Compound 679, 4-((1-((1-((4-Fluoro-1-methylpiperidin-4-yl)methyl)piperidin-4-yl)methyl)-2-methyl-1H-indol-3-yl)methyl)-N-hydroxybenzamide]		
1360 nM		> 10000 nM	Cc1c(Cc2ccc(C(=O)NO)cc2)c2ccccc2n1CC1CCN(Cc2cccc(F)c2)CC1 [Compound 631, 4-((1-((1-(3-Fluorobenzyl)piperidin-4-yl)methyl)-2-methyl-1H-indol-3-yl)methyl)-N-hydroxybenzamide]		
430 nM		> 10000 nM	Cc1c(Cc2ccc(C(=O)NO)cc2)c2ccccc2n1CC1CCN(CC2(F)CCCCC2)CC1 [Compound 698, 4-((1-((1-((1-Fluorocyclohexyl)methyl)piperidin-4-yl)methyl)-2-methyl-1H-indol-3-yl)methyl)-N-hydroxybenzamide]		
16 nM		2810 nM	Cc1c(Cc2ccc(C(=O)NO)cc2)c2ccccc2n1CCN1CCC(CO)C1 (centres unmarked) [Compound 586, N-hydroxy-4-((1-(2-(3-(hydroxymethyl)pyrrolidin-1-yl)ethyl)-2-methyl-1H-indol-3-yl)methyl)benzamide]		
